Earlier results as cited in patent US20160335412A1, “SYSTEMS AND METHODS FOR PREDICTING AND ADJUSTING THE DOSAGE OF MEDICINES IN INDIVIDUAL PATIENTS” (priority 2013, published 2016).

Compound | 'therapeutic range' of plasma drug concentrations (has been established, treatment of schizophrenia) [ng/mL] | 'therapeutic range' of plasma concentrations (documented in the literature, lower limit = no response in most patients, upper limit = toxicity in most)
Cc1cc2c(s1)Nc1ccccc1N=C2N1CCN(C)CC1 [olanzapine] | 20 to 80 | 
Cn1c(=O)c2[nH]cnc2n(C)c1=O [theophylline] |  | 5-10 micrograms per ml plasma
